The source of these data is ChEMBL document CHEMBL1221189, “Structural basis for macrolactonization by the pikromycin thioesterase” (Nat Chem Biol, 2006).

The subject of test [1] is Streptomyces venezuelae. Briefly: Inactivation of pikromycin thioesterase in Streptomyces venezuelae assessed as rate of enzymatic hydrolysis of p-nitrophenylpropionate after 8 hrs.
Test [2] relates to Streptomyces venezuelae. The test can be described thus: Inactivation of pikromycin thioesterase in Streptomyces venezuelae assessed as rate of enzymatic hydrolysis of p-nitrophenylpropionate at 2 mM. To be noted: TDE = time-dependent effect.
For test [3], the system named is Streptomyces venezuelae. The test can be described thus: Inactivation of pikromycin thioesterase in Streptomyces venezuelae assessed as rate of enzymatic hydrolysis of p-nitrophenylpropionate at 2 mM after 50 mins.
The test system of test [4] is Streptomyces venezuelae. Briefly: Inactivation of pikromycin thioesterase in Streptomyces venezuelae assessed as rate of enzymatic hydrolysis of p-nitrophenylpropionate at 2 mM after 6 hrs.

Active and inactive are the calls of the source. The calls are words filed in the database; no cut-off is given here.

For `CC[C@H](O)[C@@H](C)C(=O)CP(=O)(Oc1ccccc1)Oc1ccccc1`, the result in the test with Streptomyces venezuelae [1] was Active.

With `C[C@@H](CO)C[C@H](C)[C@H](O)[C@@H](C)C(=O)CP(=O)(Oc1ccccc1)Oc1ccccc1`, the Activity result with Streptomyces venezuelae [2] is “tde”. The fold change (FC) with Streptomyces venezuelae [3] worked out at 2. In addition, in the test on Streptomyces venezuelae [4], the outcome was Active.
